Measurements published in paper PMC12679848, “Sulphonamide derivatives with a triazine core as novel inducers of apoptosis and pyroptosis in glioblastoma multiforme cells” (Journal of Enzyme Inhibition and Medicinal Chemistry, 2025).

Experiments:
U-87 MG [1] = assay: Reactive oxygen species, H2DCFDA/DAPI staining, U-87 MG; assay type: cell-based, human; details: 30 min of compound treatment
Protocol: (§1) We performed double staining with DAPI, which stains nuclear genetic material (blue fluorescence), and H2DCFDA, an indicator of oxidative stress (green fluorescence). This study allowed us to evaluate the ability of MM118 and MM119 to activate reactive oxygen species (ROS) in A172 and U-87 MG glial cells.
(§2) The impact of the tested compounds on reactive oxygen species (ROS) production was assessed. Cells were seeded in 6-well culture plates at a density of 1 × 10^5 cells per well in 1 ml of medium. Following a 30-min treatment with the compounds, cells were washed with phosphate-buffered saline (PBS). Subsequently, double staining was performed using 20 µM 2′,7′-dichlorodihydrofluorescein diacetate (H2DCFDA) (obtained from Thermo Fisher Scientific, Eugene, OR, USA). This colourless reagent is hydrolysed by intracellular esterases and subsequently oxidised to the 2′,7′-dichlorofluorescein (DCF), and 10 µg/mL of 4′,6-diamidino-2-phenylindole (DAPI) (Sigma-Aldrich, St. Louis, MO, USA) was used to stain nuclear DNA. Fluorescence was observed using a Nikon ECLIPSE Ti fluorescence microscope (Nikon, Tokyo, Japan). ImageJ software (Bethesda, MD, USA) was used for data analysis, with DCF fluorescence intensity measured relative to the control. A minimum of 100 cells per sample were analysed.

A172 [2] = assay: MTT assay, A172; assay type: cell-based; details: Homo sapiens, A 172; A172, 24 h of incubation; read-out: IC50 values ± SEM, MTT assay
Protocol: (§3) Human glioblastoma cell lines (A172 CRL-1620™, U-87 MG HTB-14™, U-118 MG HTB-15™, T98G CRL-1690™) and the mouse astrocyte cell line (C8-D1A CRL-2541™) were obtained from the American Type Culture Collection (ATCC, Manassas, VA, USA). The cell lines were cultured in complete medium: DMEM (Corning, Kennebunk, ME, USA) for C8-D1A and T98G, and EMEM (ATCC, Manassas, VA, USA) for A172, U-87 MG, U118MG. The media were supplemented with 10% foetal bovine serum (Eurx, Gdansk, Poland) and 1% penicillin-streptomycin solution (Corning, Kennebunk, ME, USA). Cells were cultured in cell culture flasks (Sarstedt, Numbrecht, Germany) at 37 °C in 5% CO2. For experiments, cells were washed with phosphate-buffered saline without calcium and magnesium (Corning, Kennebunk, ME, USA) and treated with 0.05% trypsin and 0.02% EDTA (Corning, Kennebunk, ME, USA). Cells were counted using a Sceptre 3.0 cell counter (Merck Millipore, Burlington, MA, USA) prior to seeding into plates. For 6-well plates, 5 x 10^5 cells/mL were seeded, while for 96-well plates (Sarstedt, Numbrecht, Germany), 1 x 10^5 cells/mL were seeded in 100 μL of the medium.
(§4) The cell lines were seeded in 96-well plates and cultured according to the methodology described in the previous section. Cells were then treated with the novel derivatives MM118 and MM119 and the reference compound temozolomide (TMZ) (Sigma-Aldrich, St. Louis, MO, USA) at concentrations of 0.1, 0.25, 0.5, 1.0, 2.5, 5.0, and 10.0 μM for 24 h. The MTT assay was performed using a solution of 3–(4,5-dimethyl-2-thiazolyl)-2,5-diphenyl-2H-tetrazolium bromide (Sigma-Aldrich, St. Louis, MO, USA) at a concentration of 5 mg/mL in phosphate-buffered saline without calcium and magnesium (Corning, Kennebunk, ME, USA). After 24 h incubation with test compounds, 10 μL MTT solution was added to each well, and cells were incubated for another 2 h at 37 °C. The cells were then lysed in 100 μL lysis buffer (25 mM HCl, 2% acetic acid, 3% DMF, and 5% SDS, adjusted to pH 4.7). Absorbance was measured at 570 nm using an Absorbance 96 microplate reader (Byonoy GmbH, Hamburg, Germany).

A172 [3] = assay: Reactive oxygen species, H2DCFDA/DAPI staining, A172; assay type: cell-based, human; details: A172, 30 min of compound treatment
Protocol: as §1, §2

A172 [4] = assay: LDH release assay, A172; assay type: cell-based, human; details: A172, 1.5 μM, 24 h
Protocol: Analogous to the procedure described in the previous section, A172 and U-87 MG cells were cultured and plated in 96-well plates. The LDH-Cytotoxicity Assay Kit II (ab65393) (Abcam, Cambridge, UK) was used to assess cytotoxicity according to the manufacturer’s protocol. The test compounds MM118 and MM119 and the reference compound temozolomide (TMZ) were added to the cells at a concentration of 1.5 μM. After 24 h of exposure, the medium was collected, centrifuged and 10 μL of each sample was transferred to a new 96-well plate. In the next step, 100 μL of LDH Reaction Mix was added to each well and incubated for 30 min at room temperature. Absorbance was measured at 450 nm using an Absorbance 96 microplate reader (Byonoy GmbH, Hamburg, Germany). Cytotoxicity was calculated according to the formula provided by the manufacturer: Cytotoxicity (%) = ((Test Sample – Low Control)/(High Control – Low Control)) X 100, where Low Control - control without added compound, High Control with added 10 µL Lysis Buffer II.

caspase 8 = assay: Caspase 8 activation (FAM FLICA), U-87 MG; assay type: cell-based, human; details: 1.5 μM, 24 h
Protocol: (§5) The activity of caspase 1, caspase 3/7, caspase 8, and caspase 9 was evaluated through the utilisation of FAM FLICA Caspase Assays (ImmunoChemistry Technologies, Bloomington, MN, USA), in accordance with the established protocols. Following treatment with the compounds, the cells were collected at a concentration of 1 × 10^6 cells/mL, washed twice with cold PBS, and resuspended in 290 μL of PBS. The subsequent step involved the addition of 10 μL of 30X FLICA solution, followed by incubation at 37 °C in the absence of light for one hour. Then, 2 ml of Apoptosis Wash Buffer was added, and the samples were washed twice. A 300 μL aliquot of each sample was transferred to a BD FACSCanto II flow cytometer (Becton Dickinson Biosciences, San Jose, CA, USA), where 10,000 events per sample were recorded. The resulting data was then analysed using FACSDiva software, version 6.1.3 (BD Biosciences Systems, San Jose, CA, USA).

U-118 MG = assay: MTT assay, U-118 MG; assay type: cell-based; details: Homo sapiens, 24 h of incubation, read-out: IC50 values ± SEM, MTT assay
Protocol: as §3, §4

U-87 MG [5] = assay: MTT assay, U-87 MG; assay type: cell-based; details: Homo sapiens, 24 h of incubation, read-out: IC50 values ± SEM, MTT assay
Protocol: as §3, §4

caspase 3/7 = assay: Caspase 3/7 activation (FAM FLICA), A172; assay type: cell-based, human; details: A172, 1.5 μM, 24 h
Protocol: as §5

Compound	ROS, mean green (DCF) fluorescence (U-87 MG [1])	IC50 (A172 [2]) [nM]	ROS, mean green (DCF) fluorescence (A172 [3])	LDH release, cytotoxicity (A172 [4]) [%]	Active caspase 8 (cell population) (caspase 8)	IC50 (U-118 MG) [nM]	IC50 (U-87 MG [5]) [nM]	Active caspase 3/7 (cell population) (caspase 3/7)
CCC(CO)NS(=O)(=O)c1ccc(-n2nc(C)c3nc4nnnn4nc32)cc1 (stereo in doubt) [MM118, N-(R)-(1-hydroxy-but-2-yl)-4-[7-methyl-5H-pyrazolo[4,3-e]tetrazolo[1,5-b][1]^,[2]^,[4]triazin-5-yl)]benzenesulfonamide]	effectively induce oxidative stress	889 ± 243	increase in mean green fluorescence	16.59 ± 1.71	73.65 ± 3.76%	471 ± 191	992 ± 370	42.40 ± 12.59%
Cn1nnc2c(C(N)=O)ncn2c1=O [TMZ, temozolomide, reference compound]		> 10000		−0.61 ± 2.02	No significant statistical differences	> 10000	> 10000	no significant differences
CCC(CO)NS(=O)(=O)c1ccc(-n2nc(C)c3nc4nnnn4nc32)cc1 (stereo in doubt) [MM119, N-(S)-(1-hydroxy-but-2-yl)-4-[7-methyl-5H-pyrazolo[4,3-e]tetrazolo[1,5-b][1]^,[2]^,[4]triazin-5-yl)]benzenesulfonamide]	effectively induce oxidative stress	1240 ± 386	increase in mean green fluorescence	13.44 ± 2.87	69.15 ± 6.30%	670 ± 173	1190 ± 422	25.60 ± 4.29%
